Strand notation (5' to 3'): a small letter for the sugar, then the base; units joined by * are phosphorothioate-linked, units joined directly phosphodiester-linked; [ ] holds rarer units or linkages, { } end groups; capitals alone tell only the bases. e = 2'-O-(2-methoxyethyl) (MOE); [5mC] = 5-methylcytosine; d = 2'-deoxy (DNA)

The first data set concerns human B7-2. As to the kind of experiment: Cell surface expression of B7-2 in transfected COS-7 cells by flow cytometry. The settings on record: 200 nM; FIG. 3. In kind it is cell-based. Here is the method: A T-175 flask was seeded at 75% confluency with COS-7 cells (ATCC accession No. CRL 1651). The plasmid pcB7-1 was introduced into cells by standard calcium phosphate transfection. Following a 4 hour transfection, the cells were trypsinized and seeded in 12-well dishes at 80% confluency. The cells were allowed to adhere to the plastic for 1 hour and were then washed with phosphate-buffered saline (PBS). OptiMEM™ (GIBCO-BRL, Gaithersburg, Md.) medium was added along with 15 μg/mL of Lipofectin™ (GIBCO-BRL, Gaithersburg, Md.) and oligonucleotide at the indicated concentrations. After four additional hours, the cells were washed with phosphate buffered saline (PBS) and incubated with fresh oligonucleotide at the same concentration in DMEM (Dulbecco et al., Virol., 1959, 8, 396; Smith et al., Virol., 1960, 12, 185) with 10% fetal calf sera (FCS).
In order to monitor the effects of oligonucleotides on cell surface expression of B7-1, treated COS-7 cells were harvested by brief trypsinization 24-48 hours after oligonucleotide treatment. The cells were washed with PBS, then resuspended in 100 μL of staining buffer (PBS, 0.2% BSA, 0.1% azide) with 5 μL conjugated anti-B7-1-antibody (i.e., anti-hCD80-FITC, Ancell, Bayport, Minn.; FITC: fluorescein isothiocyanate). The cells were stained for 30 minutes at 4° C., washed with PBS, resuspended in 300 μL containing 0.5% paraformaldehyde. Cells were harvested and the fluorescence profiles were determined using a flow cytometer.
In an initial screen, the ability of hB7-2 oligonucleotides to inhibit B7-2 expression was evaluated by measuring the cell surface expression of B7-2 in transfected COS-7 cells by flow cytometry. The methods used were similar to those given in Example 2, with the exceptions that (1) COS-7 cells were transfected with the plasmids pbcB7-2 or BBG-58, a human ICAM-1 (CD54) expression vector (R&D Systems, Minneapolis, Minn.) introduced into cells by standard calcium phosphate transfection, (2) the oligonucleotides used were those described in Table 2, and (3) a conjugated anti-B7-2 antibody (i.e., anti-hCD86-FITC or anti-CD86-PE, PharMingen, San Diego, Calif.; PE: phycoerythrin) was used during flow cytometry.
B7 antisense oligonucleotides were tested for their effect on cell surface expression of both B7-1 and B7-2. Cell surface expression was measured as described in Example 1. Experiments were done for both human B7 and mouse B7.
The oligonucleotides were screened as described in Example 2 except that the concentration of oligonucleotide was varied as shown in Table 19.
(In general: In flow cytometry, cells or beads pass a laser one at a time.)
Turning to “ISIS 10715: scrambled control of # 9133; SEQ ID NO: 76 (antisense dG*dA*dT*dT*dT*dA*dA*dC*dA*dT*dT*dT*dG*dG*dC*dG*dC*dC*dC*dA) [reference compound]”, the “inhibitory activity on B7-2 cell surface expression” value is “no inhibitory activity”.

In the case of “ISIS 10716: scrambled # 9136; SEQ ID NO: 77 (antisense dA*dA*dA*dG*dT*dT*dA*dC*dA*dA*dC*dA*dT*dT*dA*dT*dA*dT*dC*dT) [reference compound]”, the “inhibitory activity on B7-2 cell surface expression” value is on record as “no inhibitory activity”.

The data set is the same for the next values; noted with them: 200 nM; protein expression assay; ISIS 10996 and 2′-O-methyl derivatives.
For the substance “5′-GCG-AGC-TCC-CCG-TAC (antisense GCGAGCTCCCCGTAC; listed as DNA, chemistry not given here) [ISIS 10996, 15-mer derived from ISIS 10373, 0015-0029; 5′-UTR]”, the “B7-2 expression relative to untreated cells” value is on record as “about 50%”.

Regarding “ISIS 11539: fully 2′MO # 10996; SEQ ID NO: 90 (antisense GCGAGCTCCCCGTAC; all 2'-O-methyl, all phosphorothioate, T or U not given here)”, the “B7-2 expression relative to untreated cells” value is listed as “not active at all”.

Staying with this data set, now noted: ISIS 10373 deletion derivatives; FIG. 4.
As for “5′-GCG-AGC-TCC-CCG-TAC (antisense GCGAGCTCCCCGTAC; listed as DNA, chemistry not given here) [ISIS 10996, 15-mer derived from ISIS 10373, 0015-0029; 5′-UTR]”, the “activity in the B7-2 protein expression assay” value is reported as “as (or more) active”.

Turning to “ISIS 10991: # 10373 deletion derivative, 10-mer, 0015-0024; SEQ ID NO: 85 (antisense dC*dT*dC*dC*dC*dC*dG*dT*dA*dC)”, the “activity in the B7-2 protein expression assay” value was “little or no activity”.

Consider “ISIS 10992: # 10373 deletion derivative, 11-mer, 0015-0025; SEQ ID NO: 86 (antisense dG*dC*dT*dC*dC*dC*dC*dG*dT*dA*dC)”, for which the “activity in the B7-2 protein expression assay” value is recorded as “little or no activity”.

For “ISIS 10993: # 10373 deletion derivative, 12-mer, 0015-0026; SEQ ID NO: 87 (antisense dA*dG*dC*dT*dC*dC*dC*dC*dG*dT*dA*dC)”, the “activity in the B7-2 protein expression assay” value is “little or no activity”.

Consider “ISIS 10994: # 10373 deletion derivative, 13-mer, 0015-0027; SEQ ID NO: 88 (antisense dG*dA*dG*dC*dT*dC*dC*dC*dC*dG*dT*dA*dC)”, for which the “activity in the B7-2 protein expression assay” value is given as “little or no activity”.

As to “ISIS 10995: # 10373 deletion derivative, 14-mer, 0015-0028; SEQ ID NO: 89 (antisense dC*dG*dA*dG*dC*dT*dC*dC*dC*dC*dG*dT*dA*dC)”, the “activity in the B7-2 protein expression assay” value was “little or no activity”.

The next data set deals with human B7.2 mRNA. The data set can be described thus: Human B7.2 mRNA levels in THP-1 cells by quantitative real-time PCR (Example 27). The class given is cell-based. Further details: concentration or dose not given beside the values.
Conditions: not given
The source says:
In accordance with the present invention, an additional series of antisense compounds were designed to target different regions of the human B7.2 RNA, using published sequences (GenBank accession number U04343.1, incorporated herein as SEQ ID NO: 295, GenBank accession number BC040261.1, incorporated herein as SEQ ID NO: 296 and GenBank accession number NT—005543.12, a portion of which is incorporated herein as SEQ ID NO: 297). “Target site” indicates the first (5′-most) nucleotide number on the particular target sequence to which the compound binds. All compounds in Table 25 are chimeric oligonucleotides (“gapmers”) 20 nucleotides in length, composed of a central “gap” region consisting of ten 2′-deoxynucleotides, which is flanked on both sides (5′ and 3′ directions) by five-nucleotide “wings”. The wings are composed of 2′-methoxyethyl (2′-MOE)nucleotides. The internucleoside (backbone) linkages are phosphorothioate (P═S) throughout the oligonucleotide. All cytidine residues are 5-methylcytidines. The compounds were analyzed for their effect on human B7.2 mRNA levels in THP-1 cells by quantitative real-time PCR as described in other examples herein. Data are averages from three experiments. If present, “N.D.” indicates “no data”.
For orientation: In qPCR the cycle at which signal appears reflects the starting amount.
In the case of “323676 (antisense e[5mC]*e[5mC]*eT*e[5mC]*eA*dA*dG*d[5mC]*dT*d[5mC]*dT*dA*dT*dA*dG*eA*eG*eA*eA*eA) [compound 323676]”, the “% INHIB (inhibition of human B7.2 mRNA levels)” value (shortened to “% INHIB”) was found to be 24%.

For the substance “323677 (antisense eG*eG*eA*eG*eG*d[5mC]*dT*dG*dA*dG*dG*dG*dT*d[5mC]*d[5mC]*eT*e[5mC]*eA*eA*eG) [compound 323677]”, the “% INHIB” value is recorded as 55%.

Regarding “323678 (antisense eA*eG*eT*eA*e[5mC]*dA*dG*d[5mC]*dT*dG*dT*dA*dA*dT*d[5mC]*e[5mC]*eA*eA*eG*eG) [compound 323678]”, the “% INHIB” value was 23%.

In the case of “323679 (antisense eT*eT*eG*eG*eA*dA*dG*dT*dA*d[5mC]*dA*dG*d[5mC]*dT*dG*eT*eA*eA*eT*e[5mC]) [compound 323679]”, the “% INHIB” value was 60%.

In the case of “323680 (antisense eA*eT*eA*eA*eT*dA*dA*d[5mC]*dT*dG*dT*dT*dG*dG*dA*eA*eG*eT*eA*e[5mC]) [compound 323680]”, the “% INHIB” value was determined as 51%.

With “323681 (antisense e[5mC]*eA*eT*e[5mC]*eA*d[5mC]*dA*d[5mC]*dA*dT*dA*dT*dA*dA*dT*eA*eA*e[5mC]*eT*eG) [compound 323681]”, the “% INHIB” value is reported as 8%.

With “323682 (antisense eT*e[5mC]*e[5mC]*eA*eT*dT*dT*d[5mC]*d[5mC]*dA*dT*dA*dG*dA*dA*eT*eT*eA*eG*eA) [compound 323682]”, the “% INHIB” value is reported as 35%.

On to “323683 (antisense eT*e[5mC]*eT*eT*e[5mC]*dT*dT*d[5mC]*d[5mC]*dA*dT*dT*dT*d[5mC]*d[5mC]*eA*eT*eA*eG*eA) [compound 323683]”, for which the “% INHIB” value is given as 16%.

On to “323684 (antisense eA*eT*eT*eT*eA*dT*dA*dA*dG*dA*dG*dT*dT*dG*d[5mC]*eG*eA*eG*eG*e[5mC]) [compound 323684]”, for which the “% INHIB” value amounted to 32%.

Regarding “323685 (antisense eT*eT*eG*eG*eT*dT*d[5mC]*d[5mC]*dA*d[5mC]*dA*dT*dT*dT*dA*eT*eA*eA*eG*eA) [compound 323685]”, the “% INHIB” value turned out to be 18%.

As to “323686 (antisense e[5mC]*eT*e[5mC]*eT*e[5mC]*d[5mC]*dA*dT*dT*dG*dT*dG*dT*dT*dG*eG*eT*eT*e[5mC]*e[5mC]) [compound 323686]”, the “% INHIB” value turned out to be 53%.

As to “323687 (antisense e[5mC]*eT*eT*e[5mC]*e[5mC]*d[5mC]*dT*d[5mC]*dT*d[5mC]*d[5mC]*dA*dT*dT*dG*eT*eG*eT*eT*eG) [compound 323687]”, the “% INHIB” value was found to be 19%.

On to “323688 (antisense eT*eG*eG*eT*e[5mC]*dT*dG*dT*dT*d[5mC]*dA*d[5mC]*dT*d[5mC]*dT*e[5mC]*eT*eT*e[5mC]*e[5mC]) [compound 323688]”, for which the “% INHIB” value was 58%.

Take “323689 (antisense eT*eT*e[5mC]*eA*eT*d[5mC]*dA*dG*dA*dT*d[5mC]*dT*dT*dT*d[5mC]*eA*eG*eG*eT*eA) [compound 323689]”: the “% INHIB” value was 43%.

Turning to “323690 (antisense eA*eT*e[5mC]*eA*e[5mC]*dT*dT*dT*dT*dG*dT*d[5mC]*dG*d[5mC]*dA*eT*eG*eA*eA*eG) [compound 323690]”, the “% INHIB” value came to 82%.

In the case of “323691 (antisense eG*e[5mC]*eT*eT*eT*dA*d[5mC]*dT*d[5mC]*dT*dT*dT*dA*dA*dT*eT*eA*eA*eA*eA) [compound 323691]”, the “% INHIB” value is listed as 40%.

On to “323692 (antisense eG*eT*eA*eT*eG*dG*dG*d[5mC]*dT*dT*dT*dA*d[5mC]*dT*d[5mC]*eT*eT*eT*eA*eA) [compound 323692]”, for which the “% INHIB” value stood at 57%.

Take “323693 (antisense eA*eT*eA*e[5mC]*eT*dT*dG*dT*dA*dT*dG*dG*dG*d[5mC]*dT*eT*eT*eA*e[5mC]*eT) [compound 323693]”: the “% INHIB” value came out at 62%.

Regarding “323694 (antisense eA*eA*eT*eG*eA*dA*dT*dA*d[5mC]*dT*dT*dG*dT*dA*dT*eG*eG*eG*e[5mC]*eT) [compound 323694]”, the “% INHIB” value is reported as 71%.

The record behind these values is patent US7897582B2, “Oligonucleotide compositions and methods for the modulation of the expression of B7 protein” (Isis Pharmaceuticals, Inc., priority 2003, dated 2011).
